Each block holds one molecule with its values, some of them ahead of it.
Tests used:
NEP in human PA SMCs = biological target: T1, NEP in human PA SMCs (Homo sapiens, UniProt P08473); assay: NEP catalytic activity in human PA SMCs (fluorometric); format: cell-based; conditions: for prevention of H2O2-induced decreases in PA SMC NEP activity: antioxidant added 0.5 h before 4 h H2O2 (100 μM), MnTMPyp 20 μM, PEG-catalase 40 units/ml
T1 construct: host or cells: primary human PA SMCs, passages 6-10
Procedure: (§1) Lung samples ([…]) or PA SMCs were homogenized in 0.5 ml 20 mM MES, pH 6.5, containing protease inhibitors, and for PA SMCs, 0.5% CHAPS. After centrifugation (10,000×g, 10 min), supernatant was stored at −80° C. NEP activity was measured as described (Dempsey et al., 2009). DPPIV activity was measured by DPPIV-Glo Protease Assay (Promega). Western analyses (Dempsey et al., 2009) with anti-human NEP (56C6, Neomarkers) were assessed by densitometry.
(§2) PA SMCs were isolated from the main PA of ‘normal’ human tissue donors (Clonetics®, Basel, Switzerland, α-SM actin positive, Factor VIII negative). Passages 6-10 were maintained in SmBM® (5% FBS), at 37° C., and used for experimentation. […] The antioxidants Tiron (2.5 mM; Sigma) (Taiwo, 2008), MnTMPyp (an SOD/catalase mimetic (Day et al., 1997), 20 μM; Calbiochem), or polyethylene glycol (PEG) conjugated catalase Beckman et al., 1988) (40 units/ml; Sigma), or the protein degradation inhibitors (Folimycin Huss and Wieczorek, 2009) for lysosomes, 50 nM; Clastolactacystin β-lactone (Dick et al., 1996) for proteasomes, 1 μM; Calbiochem) were added 0.5 or 2 h, respectively, before exposures.

recombinant human NEP = recombinant human NEP (Homo sapiens, UniProt P08473); assay: biochemical; conditions: read-out: inhibition of residual rNEP activity
Procedure: as §1

[1] = biological target: NEP activity in ‘Control’ human lung homogenates (Homo sapiens, UniProt P08473); assay: biochemical; conditions: read-out: inhibition of NEP activity in ‘Control’ crude lung homogenates
Procedure: as §1

[2] = tested on: NEP mRNA in human PA SMCs; assay: NEP mRNA levels in human PA SMCs (qRT-PCR); format: cell-based
Procedure: as §2

[3] = tested on: SM-contractile proteins (α-SM-actin, SM-myosin, SM-22, calponin); assay: SM-contractile protein expression in PASMCs (Western blotting); format: cell-based, mouse
Procedure: Cell lysates were prepared in immunoprecipitation buffer (20 mM Tris HCl (pH 7.5), 150 mM NaCl, 1 mM EDTA, 10% glycerol, 1% Nonidet P-40; 1 mM dithiothreitol, 10 mM NaF, 1 mM sodium orthovanadate, 10 μg/ml leupeptin, 10 μg/ml aprotinin, 10 μg/ml pepstatin A, and 1 mM phenylmethylsulfonyl fluoride) (Petkov et al., 2003). Cells were scraped from the plates, lysed on ice for 30 min. Cellular debris was eliminated by centrifugation for 10 min at 10,000 rpm. The protein concentration was determined by the BCA protein Assay®. Proteins (20-100 μg) were separated on SDS-PAGE and transferred to nitrocellulose membranes obtained from GE Healthcare, (Piscataway, N.J.). Membranes were blocked in PBS containing 0.1% Tween-20 and 1% BSA for 1 h at room temperature. Membranes were incubated with primary antibodies overnight at 4° C., and with secondary antibodies for 1 h at room temperature. All antibodies were diluted in PBS containing 0.1% Tween 20 and 1% BSA, and ECL reagent obtained from Perkin Elmer (Waltham, Mass.) was used for immunodetection. GAPDH was used as a loading control.
A Bio-Rad gel scanner and densitometer (Gel DocXR with Quantity 1 program) were used to assess the intensity of the bands obtained by Western blots. […] The arbitrary units obtained were normalized to GAPDH and the ratios for NEP+/+ to NEP−/− PASMCs were calculated. […]

NEP+/+ PASMCs [4] = assay: Migration of NEP+/+ PASMCs (scratch assay); format: cell-based, mouse; conditions: wild-type PASMCs, 48 h treatment; phosphoramidon 10 μMole/L or NEP siRNA 10 nMole/L; serum 0.2%, PDGF 10 ng/ml
Procedure: (§3) Mice were anesthetized with sodium pentobarbital (100 mg/kg i.p.). Proximal medial tissue was micro dissected from individual age matched 13-17 wk old NEP+/+ and NEP−/− littermate mice. Tissue was digested with […] and cells were grown in DMEM-F-12 medium containing 10% fetal bovine serum (FBS) as described (Petkov et al., 2003). PASMCs were characterized by light microscopic appearance, growth characteristics, and stained for α-SM-actin, SM-myosin, Factor VIII and LDL between passage 3 and 6. PASMCs were used for studies between passage 6 and 13.
Briefly, PASMCs were grown to confluence on 60 mm plates (Hamidi et al., 2008). The cells were serum starved in DMEM-F-12 medium with 0.2% serum for 24 h, and scraped with a sterile P200 pipette tip to generate a cell-free zone. PASMCs were then rinsed with medium and incubated with either 0.2% serum or 10 ng/ml PDGF-BB and cells that migrated into the scratch were visualized by light microscopic imaging. Quantitation of migration was done by counting the number of PASMCs in a 5 cm^2 area of the scratch. […]
Migration was determined by a modified Boyden chamber assay using a polycarbonate filter with […] pore diameter obtained from Neuroprobe (Gaithersburg, Md.) (Said et al., 2007). […] The membranes were examined under a microscope and the cells that migrated to the lower surface were counted (five random 20× fields/well).

[5] = biological target: T2, NEP activity in wild-type cells (Mus musculus, UniProt Q61391); conditions: phosphoramidon 10 μmole/liter; cited from earlier work
T2 construct: endogenous in cells; host or cells: wild-type (NEP+/+) mouse PASMCs
T2 sequence (Q61391 1-750): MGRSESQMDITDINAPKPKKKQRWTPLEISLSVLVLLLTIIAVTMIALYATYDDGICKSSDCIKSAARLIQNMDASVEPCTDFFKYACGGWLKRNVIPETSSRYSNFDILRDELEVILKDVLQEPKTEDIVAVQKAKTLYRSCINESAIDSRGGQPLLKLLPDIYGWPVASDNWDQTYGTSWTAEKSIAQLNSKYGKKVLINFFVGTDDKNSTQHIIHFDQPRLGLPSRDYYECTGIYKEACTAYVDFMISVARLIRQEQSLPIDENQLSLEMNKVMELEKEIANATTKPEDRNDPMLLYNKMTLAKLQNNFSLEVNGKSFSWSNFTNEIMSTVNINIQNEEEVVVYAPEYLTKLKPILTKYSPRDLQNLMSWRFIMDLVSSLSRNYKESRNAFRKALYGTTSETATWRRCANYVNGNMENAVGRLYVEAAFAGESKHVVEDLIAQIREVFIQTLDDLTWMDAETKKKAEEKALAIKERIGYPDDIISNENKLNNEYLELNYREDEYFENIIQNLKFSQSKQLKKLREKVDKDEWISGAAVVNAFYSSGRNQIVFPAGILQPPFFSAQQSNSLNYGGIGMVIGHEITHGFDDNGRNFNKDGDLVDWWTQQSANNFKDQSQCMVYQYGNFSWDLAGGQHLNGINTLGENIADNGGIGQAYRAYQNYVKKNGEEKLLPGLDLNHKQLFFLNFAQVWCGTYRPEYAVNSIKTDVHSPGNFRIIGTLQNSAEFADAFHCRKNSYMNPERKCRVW

NEP+/+ PASMCs [6] = assay: Proliferation of NEP+/+ PASMCs (3H-thymidine incorporation); format: cell-based, mouse; conditions: wild-type PASMCs, 48 h treatment; phosphoramidon 10 μMole/L or NEP siRNA 10 nMole/L; serum 0.2%, PDGF 10 ng/ml
Procedure: as §3
The effects of growth factors and neuropeptides on DNA synthesis were evaluated as previously reported (Petkov et al., 2003). SMCs were grown in DMEM containing 10% FBS in 24-well plates for about 16 hr. PASMCs were then incubated in DMEM supplemented with 0.2% FBS for 24 hr to make them quiescent. […] [^3H]-thymidine obtained from Perkin Elmer (Waltham, Mass.) at 1 mCi/ml was added for the last 6 hr. After labeling was completed, the cells were washed twice with ice-cold PBS, and proteins were precipitated with 5% perchloric acid. The precipitate was dissolved with 0.5N NaOH and SDS and radioactivity was measured using a liquid scintillation counter made by Beckman Coulter, Inc. (Brea, Calif.).

NEP KO PA SMCs = conditions: added to the cell culture media or lentiviral transduction; cited from earlier work

T1 sequence (P08473 whole entry): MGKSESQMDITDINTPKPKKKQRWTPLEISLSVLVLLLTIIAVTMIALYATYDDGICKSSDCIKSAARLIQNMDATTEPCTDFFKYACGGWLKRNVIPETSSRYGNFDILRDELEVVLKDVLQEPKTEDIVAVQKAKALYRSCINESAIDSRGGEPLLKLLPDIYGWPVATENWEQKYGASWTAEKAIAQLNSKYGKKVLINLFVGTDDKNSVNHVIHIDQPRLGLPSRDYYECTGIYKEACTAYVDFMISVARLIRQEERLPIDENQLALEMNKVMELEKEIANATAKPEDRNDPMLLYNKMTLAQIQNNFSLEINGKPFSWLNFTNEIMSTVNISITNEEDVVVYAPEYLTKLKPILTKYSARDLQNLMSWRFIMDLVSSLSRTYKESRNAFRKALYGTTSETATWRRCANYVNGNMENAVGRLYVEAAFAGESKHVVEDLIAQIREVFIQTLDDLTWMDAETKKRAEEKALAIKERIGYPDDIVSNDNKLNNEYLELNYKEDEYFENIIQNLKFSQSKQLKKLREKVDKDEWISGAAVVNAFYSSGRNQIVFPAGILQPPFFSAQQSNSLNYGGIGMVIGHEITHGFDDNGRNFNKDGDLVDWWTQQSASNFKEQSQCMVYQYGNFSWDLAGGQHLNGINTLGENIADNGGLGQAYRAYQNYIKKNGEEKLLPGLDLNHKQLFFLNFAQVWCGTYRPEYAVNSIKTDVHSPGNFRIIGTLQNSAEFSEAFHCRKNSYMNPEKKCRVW
NEP activity in ‘Control’ human lung homogenates, sequence (P08473 whole entry): as above
recombinant human NEP, sequence (P08473 whole entry): as above

Molecule: CC(C)C[C@H](NP(=O)(O)O[C@@H]1O[C@@H](C)[C@H](O)[C@@H](O)[C@H]1O)C(=O)N[C@@H](Cc1c[nH]c2ccccc12)C(=O)O [phosphoramidon]
expression of SM-contractile proteins in NEP+/+ cells ([3]; phosphoramidon 10 μMole/L or NEP siRNA 10 nMole/L): decrease
migration in response to serum and PDGF (NEP+/+ PASMCs [4]): increased
inhibition of NEP activity in wild-type cells [5]: completely inhibits
proliferation in response to serum and PDGF (NEP+/+ PASMCs [6]): increased

Molecule: MnTMPyp
prevention of H2O2-induced decreases in PA SMC NEP activity (NEP in human PA SMCs; Tiron 2.5 mM): prevented

B1: rNEP: recombinant human neprilysin protein (protein, UniProt P08473 2-750, looked up)
Neprilysin: GKSESQMDITDINTPKPKKKQRWTPLEISLSVLVLLLTIIAVTMIALYATYDDGICKSSDCIKSAARLIQNMDATTEPCTDFFKYACGGWLKRNVIPETSSRYGNFDILRDELEVVLKDVLQEPKTEDIVAVQKAKALYRSCINESAIDSRGGEPLLKLLPDIYGWPVATENWEQKYGASWTAEKAIAQLNSKYGKKVLINLFVGTDDKNSVNHVIHIDQPRLGLPSRDYYECTGIYKEACTAYVDFMISVARLIRQEERLPIDENQLALEMNKVMELEKEIANATAKPEDRNDPMLLYNKMTLAQIQNNFSLEINGKPFSWLNFTNEIMSTVNISITNEEDVVVYAPEYLTKLKPILTKYSARDLQNLMSWRFIMDLVSSLSRTYKESRNAFRKALYGTTSETATWRRCANYVNGNMENAVGRLYVEAAFAGESKHVVEDLIAQIREVFIQTLDDLTWMDAETKKRAEEKALAIKERIGYPDDIVSNDNKLNNEYLELNYKEDEYFENIIQNLKFSQSKQLKKLREKVDKDEWISGAAVVNAFYSSGRNQIVFPAGILQPPFFSAQQSNSLNYGGIGMVIGHEITHGFDDNGRNFNKDGDLVDWWTQQSASNFKEQSQCMVYQYGNFSWDLAGGQHLNGINTLGENIADNGGLGQAYRAYQNYIKKNGEEKLLPGLDLNHKQLFFLNFAQVWCGTYRPEYAVNSIKTDVHSPGNFRIIGTLQNSAEFSEAFHCRKNSYMNPEKKCRVW
proliferation of the NEP KO PA SMCs (NEP KO PA SMCs): dose-dependent inhibition
levels of SM-markers (α-SM-actin, SM-22, calponin) in null PASMCs ([3]; NEP−/− PASMC, lentiviral human NEP construct or rNEP 10 μg/ml): restored

Now from value to molecule, other results behind:

NEP activity after exposure, without Tiron (NEP in human PA SMCs; 4 h exposure, CSE 5 μg/ml, H2O2 100 μM): significantly decreased
inhibition at 100 µM (recombinant human NEP): 68%
inhibition at 100 µM [1]: 38%
Molecule: OO [H2O2, hydrogen peroxide]
effect on NEP mRNA expression ([2]; 100 μM H2O2, 48 h): did not significantly decrease
transient decrease in NEP mRNA ([2]; after 4 h exposure to H2O2, preliminary experiments): 40%

prevention of decreases in NEP activity due to CSE, hypoxia or H2O2 (NEP in human PA SMCs; Tiron 2.5 mM, 0.5 h before and throughout 4 h exposure): prevented
NEP activity under normoxia with Tiron vs normoxia alone (NEP in human PA SMCs; Tiron 2.5 mM, normoxia): did not differ significantly
prevention of H2O2-induced decreases in PA SMC NEP activity (NEP in human PA SMCs; Tiron 2.5 mM): prevented
Molecule: O=S(=O)(O)c1cc(O)c(O)c(S(=O)(=O)O)c1 [Tiron]

prevention of H2O2-induced decreases in PA SMC NEP activity (NEP in human PA SMCs; Tiron 2.5 mM): prevented
B2: PEG-catalase: polyethylene glycol (PEG) conjugated catalase, antioxidant (conjugate, UniProt P00432 2-527, looked up)
Catalase: ADNRDPASDQMKHWKEQRAAQKPDVLTTGGGNPVGDKLNSLTVGPRGPLLVQDVVFTDEMAHFDRERIPERVVHAKGAGAFGYFEVTHDITRYSKAKVFEHIGKRTPIAVRFSTVAGESGSADTVRDPRGFAVKFYTEDGNWDLVGNNTPIFFIRDALLFPSFIHSQKRNPQTHLKDPDMVWDFWSLRPESLHQVSFLFSDRGIPDGHRHMNGYGSHTFKLVNANGEAVYCKFHYKTDQGIKNLSVEDAARLAHEDPDYGLRDLFNAIATGNYPSWTLYIQVMTFSEAEIFPFNPFDLTKVWPHGDYPLIPVGKLVLNRNPVNYFAEVEQLAFDPSNMPPGIEPSPDKMLQGRLFAYPDTHRHRLGPNYLQIPVNCPYRARVANYQRDGPMCMMDNQGGAPNYYPNSFSAPEHQPSALEHRTHFSGDVQRFNSANDDNVTQVRTFYLKVLNEEQRKRLCENIAGHLKDAQLFIQKKAVKNFSDVHPEYGSRIQALLDKYNEEKPKNAVHTYVQHGSHLSAREKANL
modifications: PEG conjugated
notes: polyethylene glycol (PEG) conjugated catalase, antioxidant
